Data set [1] in a line: UV/Vis spectra in methylene chloride. In kind it is physicochemical. To be noted: for coagulation inhibitory effect / suppression of coagulation: in solution, judged from UV/Vis spectrum; for coagulation inhibitory effect / suppression of coagulation / shift of the peak in the Q band: in words; for λ/nm, absorption peak, 1st peak / λ/nm, absorption peak, 2nd peak / λ/nm, absorption peak, 3rd peak / λ/nm, absorption peak, 4th peak / λ/nm, absorption peak, 5th peak / shift of the peak in the Q band: methylene chloride. The source says: FIGS. 1 to 4 show the UV/Vis spectra of the inventive phthalocyanine derivatives obtained above in Examples 8 to 11 in methylene chloride.

The nature of data set [2]: fluorescence spectra in methylene chloride. To be noted: for fluorescence quantum yield, tendency in words: methylene chloride. In kind it is physicochemical. The text has this:
FIGS. 6 to 9 show the fluorescence spectra of the inventive phthalocyanine derivatives obtained above in Examples 8 to 11 in methylene chloride.

The nature of data set [3]: solubility in an organic solvent (purification by column chromatography). To be noted: result in words.
The mark [4] stands for this setting: 1.0 × 10^−4 M + Py, broken line.
The mark [5] stands for this setting: 1.0 × 10^−4 M, solid line (no pyridine).
Setting [6] is: CH2C12, solid line (no pyridine).
The mark [7] stands for this setting: CH2C12—Py, broken line (in the presence of pyridine).

With “tetrakis(pentafluorosulfanyl)zinc phthalocyanine [Example 8]”, the “coagulation inhibitory effect / suppression of coagulation” value in data set [1] is on record as “superior coagulation inhibitory effect”. In data set [1] (setting [4]), the “λ/nm, absorption peak, 1st peak” value stood at 333 nm; the “λ/nm, absorption peak, 2nd peak” value is on record as 363 nm; the “λ/nm, absorption peak, 3rd peak” value amounted to 607 nm; the “λ/nm, absorption peak, 4th peak” value was 639 nm. For the same substance, the “λ/nm, absorption peak, 5th peak” value in data set [1] (setting [4]) turned out to be 671 nm. Also, in data set [1] (setting [5]), the “λ/nm, absorption peak, 1st peak” value worked out at 334 nm; the “λ/nm, absorption peak, 2nd peak” value came out at 365 nm; the “λ/nm, absorption peak, 3rd peak” value was determined as 607 nm; the “λ/nm, absorption peak, 4th peak” value was determined as 637 nm. Further, the “λ/nm, absorption peak, 5th peak” value in data set [1] (setting [5]) amounted to 672 nm. In addition, in data set [2] (setting [6]), the “Φf fluorescence quantum yield” value came to 0.55 and the “λem (nm)” value is listed as 676 nm. Besides, the “λem (nm)” value in data set [2] (CH2C12—Py, broken line) is recorded as 676 nm. The “Φf fluorescence quantum yield” value in data set [2] (setting [7]) turned out to be 0.74.

“trifluoromethyl phthalocyanine [CF3Pc, reference compound]”: in data set [1] (setting [4]), the “λ/nm, absorption peak, 1st peak” value is reported as 334 nm; the “λ/nm, absorption peak, 2nd peak” value was 371 nm; the “λ/nm, absorption peak, 3rd peak” value was 604 nm; the “λ/nm, absorption peak, 4th peak” value is recorded as 628 nm. In addition, the “λ/nm, absorption peak, 5th peak” value in data set [1] (setting [4]) is on record as 669 nm. Also, in data set [1] (setting [5]), the “λ/nm, absorption peak, 1st peak” value is recorded as 334 nm; the “λ/nm, absorption peak, 4th peak” value stood at 626 nm; the “λ/nm, absorption peak, 5th peak” value came to 668 nm. Moreover, in data set [2] (setting [6]), the “Φf fluorescence quantum yield” value was found to be 0.58 and the “λem (nm)” value amounted to 675 nm. Further, the “λem (nm)” value in data set [2] (CH2C12—Py, broken line) is given as 674 nm. In addition, the “Φf fluorescence quantum yield” value in data set [2] (setting [7]) came out at 0.76. The “solubility in an organic solvent” value in data set [3] is “too poorly soluble in an organic solvent to be purified by column chromatography”.

Take “α-tetrakis(phenoxy)-β-tetrakis(pentafluorosulfanyl)zinc phthalocyanine [Example 10]”: in data set [1] (setting [4]), the “λ/nm, absorption peak, 1st peak” value was 328 nm; the “λ/nm, absorption peak, 2nd peak” value came out at 384 nm; the “λ/nm, absorption peak, 3rd peak” value worked out at 624 nm; the “λ/nm, absorption peak, 4th peak” value is 694 nm. In data set [1] (setting [5]), the “λ/nm, absorption peak, 1st peak” value is 326 nm; the “λ/nm, absorption peak, 2nd peak” value is 384 nm; the “λ/nm, absorption peak, 3rd peak” value was determined as 624 nm; the “λ/nm, absorption peak, 4th peak” value is 694 nm. In data set [1] (setting [5]), the “λ/nm, absorption peak, 5th peak” value was determined as 733 nm. The “shift of the peak in the Q band” value in data set [1] is listed as “significant redshift”. For the same substance, in data set [2] (setting [6]), the “Φf fluorescence quantum yield” value worked out at 0.26 and the “λem (nm)” value stood at 738 nm. The “λem (nm)” value in data set [2] (CH2C12—Py, broken line) turned out to be 704 nm. Besides, in data set [2] (setting [7]), the “Φf fluorescence quantum yield” value was 0.34. The “fluorescence quantum yield, tendency in words” value in data set [2] is recorded as “decrease in fluorescence quantum yield”.

For the substance “α-tetrakis(thiophenoxy)-β-tetrakis(pentafluorosulfanyl)zinc phthalocyanine [Example 11]”, in data set [1] (setting [4]), the “λ/nm, absorption peak, 1st peak” value was found to be 334 nm; the “λ/nm, absorption peak, 3rd peak” value stood at 406 nm; the “λ/nm, absorption peak, 4th peak” value is given as 641 nm; the “λ/nm, absorption peak, 5th peak” value turned out to be 713 nm. For the same substance, in data set [1] (setting [5]), the “λ/nm, absorption peak, 1st peak” value is listed as 333 nm; the “λ/nm, absorption peak, 3rd peak” value was 407 nm; the “λ/nm, absorption peak, 4th peak” value was 641 nm; the “λ/nm, absorption peak, 5th peak” value is given as 712 nm. In data set [1], the “shift of the peak in the Q band” value is reported as “significant redshift”. Besides, in data set [2] (setting [6]), the “Φf fluorescence quantum yield” value was 0.24 and the “λem (nm)” value amounted to 721 nm. Further, the “λem (nm)” value in data set [2] (CH2C12—Py, broken line) is recorded as 723 nm. For the same substance, the “Φf fluorescence quantum yield” value in data set [2] (setting [7]) was determined as 0.34. For the same substance, in data set [2], the “fluorescence quantum yield, tendency in words” value is listed as “decrease in fluorescence quantum yield”.

As to “α-tetrakis(trifluoromethyl)-β-tetrakis(pentafluorosulfanyl)zinc phthalocyanine [Example 9]”, the “coagulation inhibitory effect / suppression of coagulation” value in data set [1] is “superior in solubility and suppression of coagulation to the phthalocyanine obtained in Example 8”. In addition, in data set [1] (setting [4]), the “λ/nm, absorption peak, 1st peak” value worked out at 332 nm; the “λ/nm, absorption peak, 2nd peak” value is on record as 380 nm; the “λ/nm, absorption peak, 3rd peak” value is recorded as 597 nm; the “λ/nm, absorption peak, 4th peak” value is 628 nm. For the same substance, in data set [1] (setting [4]), the “λ/nm, absorption peak, 5th peak” value is reported as 659 nm. Moreover, in data set [1] (setting [5]), the “λ/nm, absorption peak, 1st peak” value is listed as 330 nm; the “λ/nm, absorption peak, 2nd peak” value is reported as 380 nm; the “λ/nm, absorption peak, 3rd peak” value is 598 nm; the “λ/nm, absorption peak, 4th peak” value is 629 nm. Further, the “λ/nm, absorption peak, 5th peak” value in data set [1] (setting [5]) was 662 nm. Besides, in data set [2] (setting [6]), the “Φf fluorescence quantum yield” value was 0.52 and the “λem (nm)” value is recorded as 669 nm. For the same substance, the “λem (nm)” value in data set [2] (CH2C12—Py, broken line) is 667 nm. Moreover, the “Φf fluorescence quantum yield” value in data set [2] (setting [7]) turned out to be 0.84.

The values above are taken from US9580604B2, “Pentafluorosulfanyl phthalocyanine derivatives and intermediates thereof” (UBE INDUSTRIES, LTD., priority 2012, dated 2017).
